ChEMBL document CHEMBL1201861, “Genomics of Drug Sensitity in Cancer screening data, Wellcome Trust Sanger Institute”

What was measured:
Test in all cases: cells
Conditions in all cases: Homo sapiens
MN-60 = assay type: functional, cell-based
Description: SANGER: Inhibition of human MN-60 cell growth in a cell viability assay.

DOHH-2 = assay type: functional, cell-based
Description: SANGER: Inhibition of human DOHH-2 cell growth in a cell viability assay.

KM-H2 = assay type: functional, cell-based
Description: SANGER: Inhibition of human KM-H2 cell growth in a cell viability assay.

BB49-HNC = assay type: functional, cell-based
Description: SANGER: Inhibition of human BB49-HNC cell growth in a cell viability assay.

KNS-42 = assay type: functional, cell-based
Description: SANGER: Inhibition of human KNS-42 cell growth in a cell viability assay.

SK-LMS-1 = assay type: functional, cell-based
Description: SANGER: Inhibition of human SK-LMS-1 cell growth in a cell viability assay.

MOLT-16 = assay type: functional, cell-based
Description: SANGER: Inhibition of human MOLT-16 cell growth in a cell viability assay.

NCI-H82 = assay type: functional, cell-based
Description: SANGER: Inhibition of human NCI-H82 cell growth in a cell viability assay.

L-428 = assay type: functional, cell-based
Description: SANGER: Inhibition of human L-428 cell growth in a cell viability assay.

ES5 = assay type: functional, cell-based
Description: SANGER: Inhibition of human ES5 cell growth in a cell viability assay.

LAMA-84 = assay type: functional, cell-based
Description: SANGER: Inhibition of human LAMA-84 cell growth in a cell viability assay.

LXF-289 cell line = assay type: functional, cell-based
Description: SANGER: Inhibition of human LXF-289 cell growth in a cell viability assay.

BE-13 = assay type: functional, cell-based
Description: SANGER: Inhibition of human BE-13 cell growth in a cell viability assay.

C8166 = assay type: functional, cell-based
Description: SANGER: Inhibition of human C8166 cell growth in a cell viability assay.

IST-MEL1 = assay type: functional, cell-based
Description: SANGER: Inhibition of human IST-MEL1 cell growth in a cell viability assay.

NCI-H1304 = assay type: functional, cell-based
Description: SANGER: Inhibition of human NCI-H1304 cell growth in a cell viability assay.

LB1047-RCC = assay type: functional, cell-based
Description: SANGER: Inhibition of human LB1047-RCC cell growth in a cell viability assay.

HL-60 = assay type: functional, cell-based
Description: SANGER: Inhibition of human HL-60 cell growth in a cell viability assay.

8-MG-BA = assay type: functional, cell-based
Description: SANGER: Inhibition of human 8-MG-BA cell growth in a cell viability assay.

COR-L88 = assay type: functional, cell-based
Description: SANGER: Inhibition of human COR-L88 cell growth in a cell viability assay.

COLO-684 = assay type: functional, cell-based
Description: SANGER: Inhibition of human COLO-684 cell growth in a cell viability assay.

KS-1 = assay type: functional, cell-based
Description: SANGER: Inhibition of human KS-1 cell growth in a cell viability assay.

COLO-824 = assay type: functional, cell-based
Description: SANGER: Inhibition of human COLO-824 cell growth in a cell viability assay.

TE-6 = assay type: functional, cell-based
Description: SANGER: Inhibition of human TE-6 cell growth in a cell viability assay.

KARPAS-45 = assay type: functional, cell-based
Description: SANGER: Inhibition of human KARPAS-45 cell growth in a cell viability assay.

MEG-01 = assay type: functional, cell-based
Description: SANGER: Inhibition of human MEG-01 cell growth in a cell viability assay.

TE-11 = assay type: functional, cell-based
Description: SANGER: Inhibition of human TE-11 cell growth in a cell viability assay.

EW-13 = assay type: functional, cell-based
Description: SANGER: Inhibition of human EW-13 cell growth in a cell viability assay.

RH-1 = assay type: functional, cell-based
Description: SANGER: Inhibition of human RH-1 cell growth in a cell viability assay.

D-263MG = assay type: functional, cell-based
Description: SANGER: Inhibition of human D-263MG cell growth in a cell viability assay.

A498 = assay type: functional, cell-based
Description: SANGER: Inhibition of human A498 cell growth in a cell viability assay.

HuTu80 = assay type: functional, cell-based, HUTU-80
Description: SANGER: Inhibition of human HUTU-80 cell growth in a cell viability assay.

MMAC-SF = assay type: functional, cell-based
Description: SANGER: Inhibition of human MMAC-SF cell growth in a cell viability assay.

KE-37 = assay type: functional, cell-based
Description: SANGER: Inhibition of human KE-37 cell growth in a cell viability assay.

A3-KAW = assay type: functional, cell-based
Description: SANGER: Inhibition of human A3-KAW cell growth in a cell viability assay.

LB831-BLC = assay type: functional, cell-based
Description: SANGER: Inhibition of human LB831-BLC cell growth in a cell viability assay.

SCH = assay type: functional, cell-based
Description: SANGER: Inhibition of human SCH cell growth in a cell viability assay.

Mo = assay type: functional, cell-based
Description: SANGER: Inhibition of human Mo-T cell growth in a cell viability assay.

SNU-5 = assay type: functional, cell-based
Description: SANGER: Inhibition of human NCI-SNU-5 cell growth in a cell viability assay.

A388 = assay type: functional, cell-based
Description: SANGER: Inhibition of human A388 cell growth in a cell viability assay.

DSH1 = assay type: functional, cell-based
Description: SANGER: Inhibition of human DSH1 cell growth in a cell viability assay.

SK-UT-1 = assay type: functional, cell-based
Description: SANGER: Inhibition of human SK-UT-1 cell growth in a cell viability assay.

NOMO-1 = assay type: functional, cell-based
Description: SANGER: Inhibition of human NOMO-1 cell growth in a cell viability assay.

HEL = assay type: functional, cell-based
Description: SANGER: Inhibition of human HEL cell growth in a cell viability assay.

A704 = assay type: functional, cell-based
Description: SANGER: Inhibition of human A704 cell growth in a cell viability assay.

BT-474 = assay type: functional, cell-based
Description: SANGER: Inhibition of human BT-474 cell growth in a cell viability assay.

KMOE-2 = assay type: functional, cell-based
Description: SANGER: Inhibition of human KMOE-2 cell growth in a cell viability assay.

ES4 = assay type: functional, cell-based
Description: SANGER: Inhibition of human ES4 cell growth in a cell viability assay.

MHH-NB-11 = assay type: functional, cell-based
Description: SANGER: Inhibition of human MHH-NB-11 cell growth in a cell viability assay.

JAR = assay type: functional, cell-based
Description: SANGER: Inhibition of human JAR cell growth in a cell viability assay.

LNCaP-Clone-FGC = assay type: functional, cell-based
Description: SANGER: Inhibition of human LNCaP-Clone-FGC cell growth in a cell viability assay.

MFM-223 = assay type: functional, cell-based
Description: SANGER: Inhibition of human MFM-223 cell growth in a cell viability assay.

ETK-1 = assay type: functional, cell-based
Description: SANGER: Inhibition of human ETK-1 cell growth in a cell viability assay.

EW-1 = assay type: functional, cell-based
Description: SANGER: Inhibition of human EW-1 cell growth in a cell viability assay.

BV-173 = assay type: functional, cell-based
Description: SANGER: Inhibition of human BV-173 cell growth in a cell viability assay.

KM12 = assay type: functional, cell-based
Description: SANGER: Inhibition of human KM12 cell growth in a cell viability assay.

TE-10 = assay type: functional, cell-based
Description: SANGER: Inhibition of human TE-10 cell growth in a cell viability assay.

OCUB-M = assay type: functional, cell-based
Description: SANGER: Inhibition of human OCUB-M cell growth in a cell viability assay.

KY821 = assay type: functional, cell-based
Description: SANGER: Inhibition of human KY821 cell growth in a cell viability assay.

CTV-1 = assay type: functional, cell-based
Description: SANGER: Inhibition of human CTV-1 cell growth in a cell viability assay.

CCRF-CEM = assay type: functional, cell-based
Description: SANGER: Inhibition of human CCRF-CEM cell growth in a cell viability assay.

NTERA-2-cl-D1 = assay type: functional, cell-based
Description: SANGER: Inhibition of human NTERA-S-cl-D1 cell growth in a cell viability assay.

RCC10RGB = assay type: functional, cell-based
Description: SANGER: Inhibition of human RCC10RGB cell growth in a cell viability assay.

C2BBe1 = assay type: functional, cell-based
Description: SANGER: Inhibition of human C2BBe1 cell growth in a cell viability assay.

GT3TKB = assay type: functional, cell-based
Description: SANGER: Inhibition of human GT3TKB cell growth in a cell viability assay.

OS-RC-2 = assay type: functional, cell-based
Description: SANGER: Inhibition of human OS-RC-2 cell growth in a cell viability assay.

## CC[C@]1(O)C[C@@H]2CN(CCc3c([nH]c4ccccc34)[C@@](C(=O)OC)(c3cc4c(cc3OC)N(C)[C@H]3[C@@](O)(C(=O)OC)[C@H](OC(C)=O)[C@]5(CC)C=CCN6CC[C@]43[C@@H]65)C2)C1 [VINBLASTINE]
MN-60
  IC50: 29.4 nM
DOHH-2
  IC50: 1.81 nM
KM-H2
  IC50: 5.34 nM
BB49-HNC
  IC50: 12.6 nM
KNS-42
  IC50: 18.7 nM
SK-LMS-1
  IC50: 58.6 nM
MOLT-16
  IC50: 2.43 nM
NCI-H82
  IC50: > 100 nM
L-428
  IC50: > 100 nM
ES5
  IC50: 3.88 nM
LAMA-84
  IC50: 7.01 nM
LXF-289 cell line
  IC50: 10.3 nM
BE-13
  IC50: 1.42 nM
C8166
  IC50: 27 nM
IST-MEL1
  IC50: 4.53 nM
NCI-H1304
  IC50: > 100 nM
LB1047-RCC
  IC50: 40.3 nM
HL-60
  IC50: 4.37 nM
8-MG-BA
  IC50: 6.34 nM
COR-L88
  IC50: 24.3 nM
COLO-684
  IC50: 7.67 nM
KS-1
  IC50: 7.99 nM
COLO-824
  IC50: > 100 nM
TE-6
  IC50: 56.5 nM
KARPAS-45
  IC50: 1.79 nM
MEG-01
  IC50: 14.7 nM
TE-11
  IC50: 5.13 nM
EW-13
  IC50: 36.5 nM
RH-1
  IC50: 3.4 nM
D-263MG
  IC50: 9.28 nM
A498
  IC50: 5.94 nM
HuTu80
  IC50: 12.3 nM
MMAC-SF
  IC50: 15.1 nM
KE-37
  IC50: 3.99 nM
A3-KAW
  IC50: 4.32 nM
LB831-BLC
  IC50: 21.2 nM
SCH
  IC50: 29.7 nM
Mo
  IC50: > 100 nM
SNU-5
  IC50: > 100 nM
A388
  IC50: 6.91 nM
DSH1
  IC50: 23.2 nM
SK-UT-1
  IC50: 11.7 nM
NOMO-1
  IC50: 7.86 nM
HEL
  IC50: 32.8 nM
A704
  IC50: > 100 nM
BT-474
  IC50: 94.2 nM
KMOE-2
  IC50: 20.8 nM
ES4
  IC50: 13.8 nM
MHH-NB-11
  IC50: 38.9 nM
JAR
  IC50: 0.608 nM
LNCaP-Clone-FGC
  IC50: 8.28 nM
MFM-223
  IC50: > 100 nM
ETK-1
  IC50: 5.79 nM
EW-1
  IC50: 3.15 nM
BV-173
  IC50: 42.3 nM
KM12
  IC50: 14.4 nM
TE-10
  IC50: 21.5 nM
OCUB-M
  IC50: 7.56 nM
KY821
  IC50: 3.69 nM
CTV-1
  IC50: 1.41 nM
CCRF-CEM
  IC50: 10.1 nM
NTERA-2-cl-D1
  IC50: 5.89 nM
RCC10RGB
  IC50: > 100 nM
C2BBe1
  IC50: 16.9 nM
GT3TKB
  IC50: 1.92 nM
OS-RC-2
  IC50: 69.8 nM
